Results on 50 compounds are retold here after ChEMBL document CHEMBL1138923, “Structure-activity relationships of 1,5-biaryl pyrroles as EP1 receptor antagonists” (Bioorg Med Chem Lett, 2006).

Data set [1] addresses T1, Prostaglandin E2 receptor EP1 subtype (Homo sapiens, UniProt P34995).
T1 sequence (P34995 whole entry): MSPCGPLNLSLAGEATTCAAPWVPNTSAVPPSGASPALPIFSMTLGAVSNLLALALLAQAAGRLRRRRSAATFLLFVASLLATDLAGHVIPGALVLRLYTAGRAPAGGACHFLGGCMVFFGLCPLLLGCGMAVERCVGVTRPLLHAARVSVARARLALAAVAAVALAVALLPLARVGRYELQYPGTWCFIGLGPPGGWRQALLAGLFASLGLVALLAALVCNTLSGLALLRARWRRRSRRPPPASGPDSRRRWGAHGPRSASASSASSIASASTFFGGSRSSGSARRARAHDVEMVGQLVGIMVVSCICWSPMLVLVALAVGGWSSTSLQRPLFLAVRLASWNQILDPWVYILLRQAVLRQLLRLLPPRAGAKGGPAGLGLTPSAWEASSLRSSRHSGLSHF
As to the kind of experiment: Inhibition of [3H]PGE2 binding to EP1 receptor expressed in CHO cells. Format: cell-based.

The species named for another data set is Rattus norvegicus. As to the kind of experiment: Decrease in weight bearing of left hind paw in rat FCA model of inflammatory pain 1 hr post dose. Format: functional.
Data set [2] can be described thus: Volume of distribution in rat at 1 mg/kg, iv. Details: dose 1 mg/kg, route intravenous. Type of data set: ADME, organism-based. The settings on record: in vivo, read-out: Vss.
Data set [3] in a line: Clearance in rat at 1 mg/kg, iv. Format: ADME, organism-based. More on the design: dose 1 mg/kg, route intravenous. The settings on record: in vivo.
A short description of data set [4]: Oral bioavailability in rat at 3 mg/kg, po. The settings on record: in vivo. Format: ADME, organism-based.
The target of another data set is Cytochrome P450 (family) (Homo sapiens, UniProt P04798+P05177+P05181+P08684+P10632+P10635+P11509+P11712+P13584+P20813+P20815+P20853+P24462+P24903+P33260+P33261+P51589+P78329+P98187+Q02928+Q08477+Q16678+Q16696+Q5TCH4+Q6VVX0+Q7Z449+Q8TAV3+Q96SQ9+Q9HB55). As to the kind of experiment: Inhibition of CYP450. Format: ADME.
A further data set concerns the target Cytochrome P450 2C9 (Homo sapiens, UniProt P11712). As to the kind of experiment: Inhibition of CYP450 2C9. Type of data set: ADME.
The nature of data set [5]: Half life in rat at 1 mg/kg, iv. Format: ADME, organism-based. Details: dose 1 mg/kg, route intravenous. The settings on record: in vivo.

Structures are written as SMILES.

Chain of Cytochrome P450 2C9 (P11712 whole entry): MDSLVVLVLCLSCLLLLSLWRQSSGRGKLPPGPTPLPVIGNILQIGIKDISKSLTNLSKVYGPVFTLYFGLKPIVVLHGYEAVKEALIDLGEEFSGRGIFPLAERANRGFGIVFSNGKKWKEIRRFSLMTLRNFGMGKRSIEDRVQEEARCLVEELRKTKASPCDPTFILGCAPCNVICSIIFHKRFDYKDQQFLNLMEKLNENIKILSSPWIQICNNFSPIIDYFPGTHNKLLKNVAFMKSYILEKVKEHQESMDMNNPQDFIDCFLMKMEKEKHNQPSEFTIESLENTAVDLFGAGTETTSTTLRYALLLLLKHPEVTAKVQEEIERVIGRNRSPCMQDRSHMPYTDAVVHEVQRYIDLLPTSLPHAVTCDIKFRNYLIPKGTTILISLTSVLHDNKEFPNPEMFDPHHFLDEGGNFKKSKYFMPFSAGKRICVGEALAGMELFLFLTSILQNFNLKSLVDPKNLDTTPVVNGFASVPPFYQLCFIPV

In data set [1], `O=C(O)c1cccc(-n2c(-c3cc(Cl)ccc3OCc3ccc(F)cc3F)ccc2C(F)(F)F)c1` showed an IC50 of 100 nM. That is a sub-micromolar value. Same read-out and setting: the same measure for `Cc1ccc(-c2cc(Br)ccc2OCC2CCCC2)n1-c1cccc(C(=O)O)c1`: 15.8 nM.

Compound `Cc1ccc(-c2cc(Br)ccc2OCc2ccc(F)cc2)n1-c1cccc(C(=O)O)c1` registered an ED50 in the data set filed under Rattus norvegicus of 9.2 mg/kg. In addition, the IC50 was 6.31 nM in data set [1], no less than 17000 nM on Cytochrome P450 (family) and 3900 nM against Cytochrome P450 2C9. The Vd in data set [2] worked out at 0.7 L/kg. In data set [3], the clearance came out at 42 mL/min/kg. Also, the bioavailability in data set [4] was 44%. On to `Cc1ccccc1COc1ccc(Br)cc1-c1ccc(C)n1-c1cccc(C(=O)O)c1`, for which the IC50 in data set [1] is 20 nM. `Cc1ccc(-c2cc(Br)ccc2OCc2ccc(F)cc2Cl)n1-c1cccc(C(=O)O)c1`: the half-life in data set [5] is 18 min. In data set [1], this compound had an IC50 of 15.8 nM. Further, the Vd in data set [2] worked out at 0.8 L/kg. In addition, the clearance in data set [3] worked out at 48 mL/min/kg.

Compound `Cc1ccc(-c2cc(Br)ccc2OCc2c(F)cccc2C(F)(F)F)n1-c1cccc(C(=O)O)c1` had an IC50 in data set [1] of 100 nM. Compound `Cc1ccc(-c2cc(Cl)ccc2OCc2ccc(F)cc2)n1-c1cccc(C(=O)O)c1` gave an IC50 in data set [1] of 6.31 nM. Besides, the Vd in data set [2] is 0.9 L/kg. Also, the clearance in data set [3] is 48 mL/min/kg. For the compound `Cc1ccc(-c2cc(Br)ccc2OCc2ccc(F)c(F)c2)n1-c1cccc(C(=O)O)c1`, in data set [1], the IC50 is 5.01 nM. The compound `Cc1ccc(-c2cc(Br)ccc2OCc2cc(F)ccc2F)n1-c1cccc(C(=O)O)c1` gave an IC50 in data set [1] of 7.94 nM.

`O=C(O)c1cccc(-n2c(-c3cc(Cl)ccc3OCc3ccc(F)cc3)ccc2C(F)(F)F)c1`: the IC50 in data set [1] is 200 nM. Regarding `Cc1ccc(COc2ccc(Br)cc2-c2ccc(C)n2-c2cccc(C(=O)O)c2)cc1`, the IC50 in data set [1] is 2.51 nM.

As for `Cc1cc(COc2ccc(Br)cc2-c2ccc(C)n2-c2cccc(C(=O)O)c2)no1`, the IC50 in data set [1] is 25.1 nM. On the same count and under the same terms, in the case of `Cc1c(Cl)cc(-c2cc(Cl)ccc2OCc2ccccc2)n1-c1cccc(C(=O)O)c1` it was greater than 1000 nM. In turn, `Cc1ccc(-c2cc(Cl)ccc2OCC(C)C)n1-c1cccc(C(=O)O)c1` had an IC50 in data set [1] of 5.01 nM. That is a single-digit nanomolar value. The same measure, in the same setting: in the case of `Cc1ccc(-c2cc(Br)ccc2OCc2cccc(Cl)c2)n1-c1cccc(C(=O)O)c1` it was 10 nM. The same measure, in the same setting: in the case of `Cc1ccc(-c2cc(Br)ccc2OCc2c(F)cc(F)cc2F)n1-c1cccc(C(=O)O)c1` it was 1.58 nM.

The compound `Cc1c(-c2ccccc2)cc(-c2cc(Cl)ccc2OCc2ccccc2)n1-c1cccc(C(=O)O)c1` gave an IC50 in data set [1] greater than 1000 nM. The same measure, in the same setting: in the case of `Cc1ccc(-c2cc(Br)ccc2OCC2CCCCC2)n1-c1cccc(C(=O)O)c1` it was 39.8 nM; in that of `Cc1ccc(-c2cc(Br)ccc2OCc2cccc(OC(F)F)c2)n1-c1cccc(C(=O)O)c1`, 79.4 nM; in that of `Cc1ccc(-c2cc(Br)ccc2OCc2ccc(Cl)cc2Cl)n1-c1cccc(C(=O)O)c1`, 5.01 nM. For the compound `Cc1ccc(-c2cc(Cl)ccc2OCc2ccc(F)cc2F)n1-c1cccc(C(=O)O)c1`, the IC50 in data set [1] was 3.98 nM. The Vd in data set [2] turned out to be 0.9 L/kg. Moreover, the clearance in data set [3] stood at 62 mL/min/kg. As for `Cc1ccc(-c2cc(Br)ccc2OCc2c(F)cccc2F)n1-c1cccc(C(=O)O)c1`, the IC50 in data set [1] is 1 nM. In data set [5], `Cc1ccc(-c2cc(Br)ccc2OCc2ccc(Cl)cc2)n1-c1cccc(C(=O)O)c1` gave a half-life of 12 min. Moreover, in data set [1], the IC50 is 10 nM. The Vd in data set [2] turned out to be 0.8 L/kg. In addition, in data set [3], the clearance was 51 mL/min/kg. As to `Cc1ccc(-c2ccccc2OCc2ccccc2)n1-c1cccc(C(=O)O)c1`, the IC50 in data set [1] is 20 nM.

Compound `Cc1ccc(-c2cc(Br)ccc2OCc2ccc(C(F)(F)F)cc2F)n1-c1cccc(C(=O)O)c1` gave an IC50 in data set [1] of 12.6 nM. Same read-out and setting: the same measure for `Cc1ccc(-c2cc(Br)ccc2OCc2ccccc2F)n1-c1cccc(C(=O)O)c1`: 3.16 nM. Still for that read-out and setting: in the case of `Cc1noc(C)c1COc1ccc(Br)cc1-c1ccc(C)n1-c1cccc(C(=O)O)c1` it was 200 nM; in that of `Cc1ccc(-c2cc(Cl)ccc2OCC2CCOCC2)n1-c1cccc(C(=O)O)c1`, 39.8 nM. In the case of `Cc1ccc(-c2cc(C(F)(F)F)ccc2OCc2ccccc2)n1-c1cccc(C(=O)O)c1`, the IC50 in data set [1] is 5.01 nM. Still for that read-out and setting: in the case of `Cc1ccc(-c2cc(S(C)(=O)=O)ccc2OCc2ccccc2)n1-c1cccc(C(=O)O)c1` it was 25.1 nM; in that of `Cc1ccc(-c2cc(Br)ccc2OCc2cccc(C(F)(F)F)c2)n1-c1cccc(C(=O)O)c1`, 251 nM; in that of `COc1ccc(COc2ccc(Br)cc2-c2ccc(C)n2-c2cccc(C(=O)O)c2)cc1`, 50.1 nM. Consider `COc1cccc(COc2ccc(Br)cc2-c2ccc(C)n2-c2cccc(C(=O)O)c2)c1`, for which the IC50 in data set [1] was 50.1 nM. For `Cc1c(Br)cc(-c2cc(Cl)ccc2OCc2ccccc2)n1-c1cccc(C(=O)O)c1`, in data set [5], the half-life is 18 min. In data set [1], this compound showed an IC50 of 794 nM. Besides, the Vd in data set [2] came to 1 L/kg. The clearance in data set [3] was 54 mL/min/kg. Take `Cc1ccc(-c2cc(-c3ccccc3)ccc2OCc2ccccc2)n1-c1cccc(C(=O)O)c1`: the IC50 in data set [1] is 398 nM.

As to `O=C(O)c1cccc(-n2c(Cl)ccc2-c2cc(Cl)ccc2OCc2ccccc2)c1`, the IC50 in data set [1] was 25.1 nM. Compared with the last compound, the IC50 is about 16-fold lower. `Cc1ccc(-c2cc(Cl)ccc2OCC2CCCCC2)n1-c1cccc(C(=O)O)c1` had a half-life in data set [5] of 24 min. The IC50 in data set [1] is 126 nM. The Vd in data set [2] came out at 0.5 L/kg. In data set [3], this compound displayed a clearance of 28 mL/min/kg. In data set [1], `Cc1ccc(-c2cc(Br)ccc2OCc2ccc(OC(F)(F)F)cc2)n1-c1cccc(C(=O)O)c1` had an IC50 of 15.8 nM. Still for that read-out and setting: the same measure for `Cc1ccc(-c2cc(Cl)ccc2OCC2CCCO2)n1-c1cccc(C(=O)O)c1` (configuration not stated): 39.8 nM; for `Cc1ccc(-c2cc(Br)ccc2OCC(C)C)n1-c1cccc(C(=O)O)c1`: 5.01 nM.

The compound `Cc1ccc(-c2cc(C(F)(F)F)ccc2OCC2CCCCC2)n1-c1cccc(C(=O)O)c1` had an IC50 in data set [1] of 31.6 nM.

In the case of `Cc1ccc(-c2cc(Br)ccc2OCc2ccc(Cl)c(Cl)c2)n1-c1cccc(C(=O)O)c1`, the IC50 in data set [1] is 100 nM. Same read-out and setting: the same measure for `Cc1ccc(-c2cc(Br)ccc2OCc2cccc(F)c2F)n1-c1cccc(C(=O)O)c1`: 6.31 nM; for `CCc1ccc(-c2cc(Cl)ccc2OCc2ccccc2)n1-c1cccc(C(=O)O)c1`: 100 nM. On the same count and under the same terms, the same measure for `CCc1ccc(-c2cc(Br)ccc2OCc2ccccc2)n1-c1cccc(C(=O)O)c1`: 79.4 nM; for `Cc1ccc(-c2cc(-c3ccsc3)ccc2OCc2ccccc2)n1-c1cccc(C(=O)O)c1`: 631 nM. Same read-out and setting: the same measure for `Cc1ccc(-c2cc(Br)ccc2OCc2ccc(C(F)(F)F)cc2)n1-c1cccc(C(=O)O)c1`: 39.8 nM; for `Cc1ccc(-c2cc(Br)ccc2OCc2c(F)cccc2Cl)n1-c1cccc(C(=O)O)c1`: 12.6 nM. `Cc1ccc(-c2cc(Br)ccc2OCc2ccccc2Cl)n1-c1cccc(C(=O)O)c1` gave an IC50 in data set [1] of 12.6 nM. That is a double-digit nanomolar value. As to `Cc1ccc(-c2cc(Cl)ccc2OCC2CCCC2)n1-c1cccc(C(=O)O)c1`, in data set [1], the IC50 was 25.1 nM. Compared with the last compound, the IC50 is about 2-fold higher.

A word on the IC50: it is the midpoint of a concentration-inhibition curve. What is called ED50 is the midpoint of the dose-response relation. Usually clearance stands for the rate of elimination divided by the concentration. Low readings indicate inefficient removal, high ones efficient removal. By bioavailability is commonly meant the share of a dose that reaches the circulation, judged against a reference dose that is usually intravenous. The term half-life denotes how long it takes for the measured level to halve. Read a high half-life as slow decline.
